Test results: US20060111423A1, “Use of diindolylmethane-related indoles and growth factor receptor inhibitors for the treatment of human cytomegalovirus-associated disease” (priority 2004, published 2006)

How the values were obtained:
[1] = tested on: TRAMP-C2 prostate cancer cells; type: in vivo; conditions: C57BL/6 mice, gavage once daily 5 days per week, 4 weeks
Procedure: METHODS: TRAMP-C2 cells, a mouse PC cell line are obtained from the American Type Culture Collection (Rockville, Md.). Six week old male C57BL/6 mice are purchased from Harlan Laboratories (Harlan, USA). TRAMP-C2 cells are suspended in media and aliquots are injected into the flank of male C57BL/6 mice using a 27 gauge needle. Two weeks after tumor transplantation when tumors appear, mice are divided in six groups treated as indicated:
Animals are dosed by gavage once daily, 5 days per week. Tumor volumes are measured weekly for 4 weeks following transplantation using calipers. Later, the tumors are removed, their final weights and volumes are measured. […] Tumor volumes in mm^2 are determined during the study using the formula π/6×larger diameter×(smaller diameter)^2. The data are expressed as the increase or decrease in tumor volume in mm^3. Histological studies are performed to assess the contribution of apotosis promotion in the reduction of tumor volume in treated groups.

Towne strain HCMV = assay: HCMV titer reduction assay in HEL fibroblasts; type: cell-based, Human Cytomegalovirus; conditions: HEL fibroblasts infected with HCMV, supernatant day 6 postinfection, plaque assay
Procedure: Cell culture studies are performed to establish activity of DIM-related indoles alone and in combination with GFR's as inhibitors of HCMV replication in an in vitro model relevant to human infection.
Cell culture and viral infection. Human embryonic lung (HEL) fibroblasts are cultured in Eagle's minimal essential media (EMEM) (Gibco, BRL) supplemented with 10% fetal bovine serum (FBS) plus antibiotics.
Towne strain HCMV (passages 36 to 40) is propagated in HEL fibroblasts as previously described (Kowalik et al., 1993, Proc. Natl. Acad. Sci. USA 90:1107-1111).
For infection, cells are grown to confluence and then are serum starved for 48 h in minimal essential media (MEM) plus antibiotics. Cells are infected with HCMV that had been purified through a sucrose cushion to eliminate cytokines and growth factor contamination. Seeding of cells using a multiplicity of infection of 2-5 PFU per cell is used.
At the indicated time after infection, cells are washed once and then are maintained in MEM plus antibiotics until they are harvested. Cells are pretreated for 1 h with the listed compound or combinations of compounds prior to infection. […]
Titer reduction assay. The levels of active virus during the culture period are determined using a Titer Reduction Assay. […] HCMV plaque numbers are scored under an inverted microscope.

Compound	tumor growth (tumor volumes compared to control group) [1]	viral titers (Towne strain HCMV)
COc1cc2ncnc(Nc3ccc(F)c(Cl)c3)c2cc1OCCCN1CCOCC1 [Gefitinib, N-(3-chloro-4-fluorophenyl)-7-methoxy-6-(3-morpholinopropoxy)quinazolin-4-amine, reference compound]	inhibition of tumor growth	–
c1ccc2c(Cc3c[nH]c4ccccc34)c[nH]c2c1 [Diindolylmethane, 3,3′-diindolylmethane]	inhibition of tumor growth	significant decrease
